Measurements taken from patent publication US12350458B2, “Apparatus and method for skin treatment” (Brain Tunnelgenix Technologies Corp., priority 2015, dated 2025).

Method: Referring to FIG. 1, an epidermis 1506 and a dermis 1508 are collectively referred to as a superficial skin layer 1520 herein. An area of a skin 1500 where cold is applied is referred to herein as a cold site. […] Skin blood flow rate in both the cold site and normothermic site was measured using a laser Doppler perfusion imaging system. Studies also compared plasma concentration of drug 1510 in subjects at the cold site and the normothermic site. […] In one exemplary experiment skin blood flow was measured 15 min after application of cold, and every 15 min thereafter for a total of 3 hours.

O=C(O)c1ccccc1O [salicylic acid]
concentration of drug in superficial skin layer of cold site, higher compared to normothermic site: about 80% | plasma concentration at cold site, lower compared to normothermic site (human, in vivo): about 60% | plasma concentration, cold site (human, in vivo): about 45 nmol/ml
